Measurements from ChEMBL document CHEMBL5143564, “PES derivative PESA is a potent tool to globally profile cellular targets of PES” (Bioorg Med Chem Lett, 2022).
The source made the active and inactive calls. No cut-off for these calls is given here.

How the values were obtained:
[1] = species on record: Homo sapiens; test: Binding affinity to ADP-bound full-length human HSP70 assessed as Cys603 adduct formation by size exclusion chromatography
[2] = tested on: DOHH-2; test: Induction of apoptosis in human DOHH-2 cells assessed as increase in cleaved PARP expression at 0.5 to 10 uM measured after 24 hrs by Western blot analysis; format: functional, cell-based; conditions: dose 0.5-10 µM
[3] = tested on: DOHH-2; test: Induction of apoptosis in human DOHH-2 cells assessed as increase in cleaved caspase-3 expression at 10 uM measured after 4 to 24 hrs by Western blot analysis; format: functional, cell-based; conditions: time 4-24 hrs
[4] = species on record: Homo sapiens; test: Binding affinity to ADP-bound full-length human HSP70 assessed as cysteine adduct formation at SBDalpha domain by measuring half life at 1 mM by fluorescence spectra analysis
[5] = GSH reactivity in pH 7.4 buffer assessed as GSH adduct formation by measuring half life at 50 uM by near-UV absorbance spectra analysis; format: physicochemical; conditions: pH 7.4, 50 µM
[6] = tested on: DOHH-2; test: Induction of autophagy in human DOHH-2 cells assessed as reduction in p62 expression at 10 uM measured after 4 to 24 hrs by Western blot analysis; format: functional, cell-based; conditions: time 4-24 hrs
[7] = species on record: Homo sapiens; test: Binding affinity to human HSP70 SBDalpha domain (537 to 610 residues) C574S mutant assessed as Cys603 adduct formation by size exclusion chromatography
[8] = tested on: DOHH-2; test: Induction of autophagy in human DOHH-2 cells assessed as change in transformation of LC3B1 to LC3B2 expression at 10 uM measured after 4 to 24 hrs by Western blot analysis; format: functional, cell-based; conditions: time 4-24 hrs
[9] = tested on: HEK-293T; test: Cytotoxicity against HEK293T cells up to 20 uM measured after 24 hrs; format: toxicity, cell-based; conditions: human
[10] = tested on: DOHH-2; test: Up regulation of HSP70 expression in human DOHH-2 cells at 10 uM measured after 4 to 24 hrs by Western blot analysis; format: functional, cell-based; conditions: time 4-24 hrs
[11] = tested on: Jurkat; test: Cytotoxicity against human Jurkat T cells measured after 72 hrs; format: functional, cell-based
[12] = tested on: DOHH-2; test: Up regulation of HSP90alpha expression in human DOHH-2 cells at 0.5 to 10 uM measured after 24 hrs by Western blot analysis; format: functional, cell-based; conditions: dose 0.5-10 µM
[13] = tested on: DOHH-2; test: Induction of autophagy in human DOHH-2 cells assessed as reduction in p62 expression at 0.5 to 10 uM measured after 24 hrs by Western blot analysis; format: functional, cell-based; conditions: dose 0.5-10 µM
[14] = tested on: Jurkat; test: Cytotoxicity against human Jurkat T cells up to 20 uM measured after 24 hrs; format: functional, cell-based
[15] = tested on: DOHH-2; test: Induction of apoptosis in human DOHH-2 cells assessed as increase in cleaved PARP expression at 10 uM measured after 4 to 24 hrs by Western blot analysis; format: functional, cell-based; conditions: time 4-24 hrs
[16] = tested on: DOHH-2; test: Cytotoxicity against human DOHH-2 cells up to 20 uM measured after 24 hrs; format: functional, cell-based
[17] = tested on: DOHH-2; test: Induction of autophagy in human DOHH-2 cells assessed as change in transformation of LC3B1 to LC3B2 expression at 0.5 to 10 uM measured after 24 hrs by Western blot analysis; format: functional, cell-based; conditions: dose 0.5-10 µM
[18] = tested on: DOHH-2; test: Induction of apoptosis in human DOHH-2 cells assessed as increase in cleaved caspase-3 expression at 0.5 to 10 uM measured after 24 hrs by Western blot analysis; format: functional, cell-based; conditions: dose 0.5-10 µM
[19] = tested on: HepG2; test: Cytotoxicity against human HepG2 cells measured after 72 hrs; format: functional, cell-based
[20] = tested on: DOHH-2; test: Up regulation of HSP90alpha expression in human DOHH-2 cells at 10 uM measured after 4 to 24 hrs by Western blot analysis; format: functional, cell-based; conditions: time 4-24 hrs
[21] = tested on: DOHH-2; test: Cytotoxicity against human DOHH-2 cells measured after 72 hrs; format: functional, cell-based
[22] = tested on: DOHH-2; test: Up regulation of HSP70 expression in human DOHH-2 cells at 0.5 to 10 uM measured after 24 hrs by Western blot analysis; format: functional, cell-based; conditions: dose 0.5-10 µM
[23] = tested on: MDA-MB-453; test: Cytotoxicity against human MDA-MB-453 cells measured after 72 hrs; format: functional, cell-based
[24] = tested on: DOHH-2; test: Induction of apoptosis in human DOHH-2 cells assessed as increase in cleaved PARP expression at 0.5 to 12 uM measured after 24 hrs by Western blot analysis; format: functional, cell-based; conditions: dose 0.5-12 µM
[25] = tested on: DOHH-2; test: Up regulation of HSP70 expression in human DOHH-2 cells at 12 uM measured after 4 to 24 hrs by Western blot analysis; format: functional, cell-based; conditions: time 4-24 hrs
[26] = tested on: DOHH-2; test: Up regulation of HSP70 expression in human DOHH-2 cells at 0.5 to 12 uM measured after 24 hrs by Western blot analysis; format: functional, cell-based; conditions: dose 0.5-12 µM
[27] = tested on: DOHH-2; test: Induction of autophagy in human DOHH-2 cells assessed as change in transformation of LC3B1 to LC3B2 expression at 12 uM measured after 4 to 24 hrs by Western blot analysis; format: functional, cell-based; conditions: time 4-24 hrs
[28] = tested on: DOHH-2; test: Induction of apoptosis in human DOHH-2 cells assessed as increase in cleaved caspase-3 expression at 12 uM measured after 4 to 24 hrs by Western blot analysis; format: functional, cell-based; conditions: time 4-24 hrs
[29] = tested on: DOHH-2; test: Induction of apoptosis in human DOHH-2 cells assessed as increase in cleaved PARP expression at 12 uM measured after 4 to 24 hrs by Western blot analysis; format: functional, cell-based; conditions: time 4-24 hrs
[30] = tested on: DOHH-2; test: Induction of apoptosis in human DOHH-2 cells assessed as increase in cleaved caspase-3 expression at 0.5 to 12 uM measured after 24 hrs by Western blot analysis; format: functional, cell-based; conditions: dose 0.5-12 µM
[31] = tested on: DOHH-2; test: Induction of autophagy in human DOHH-2 cells assessed as reduction in p62 expression at 0.5 to 12 uM measured after 24 hrs by Western blot analysis; format: functional, cell-based; conditions: dose 0.5-12 µM
[32] = tested on: DOHH-2; test: Up regulation of HSP90alpha expression in human DOHH-2 cells at 0.5 to 12 uM measured after 24 hrs by Western blot analysis; format: functional, cell-based; conditions: dose 0.5-12 µM
[33] = tested on: DOHH-2; test: Up regulation of HSP90alpha expression in human DOHH-2 cells at 12 uM measured after 4 to 24 hrs by Western blot analysis; format: functional, cell-based; conditions: time 4-24 hrs
[34] = GSH reactivity in pH 7.4 buffer assessed as GSH adduct formation at 1 mM by HPLC analysis; format: physicochemical; conditions: pH 7.4, 1000 µM
[35] = tested on: DOHH-2; test: Induction of autophagy in human DOHH-2 cells assessed as reduction in p62 expression at 12 uM measured after 4 to 24 hrs by Western blot analysis; format: functional, cell-based; conditions: time 4-24 hrs
[36] = GSH reactivity in pH 7.4 buffer assessed as GSH adduct formation by measuring molecular weight at 1 mM by Q-TOF LC/MS analysis; format: physicochemical; conditions: pH 7.4, 1000 µM
[37] = tested on: DOHH-2; test: Induction of autophagy in human DOHH-2 cells assessed as change in transformation of LC3B1 to LC3B2 expression at 0.5 to 12 uM measured after 24 hrs by Western blot analysis; format: functional, cell-based; conditions: dose 0.5-12 µM

Structure (SMILES): NS(=O)(=O)C#Cc1cccc(Cl)c1
- Activity [1]: Active
- Activity [2]: Active
- Activity [3]: Active
- T1/2 [4]: 59.9 min
- t1/2 [5]: 2.97 min
- Activity [6]: Active
- Activity [7]: Active
- Activity [8]: Active
- Activity [9]: Non-Toxic
- Activity [10]: Active
- Activity [11]: Active
- Activity [12]: Active
- Activity [13]: Active
- Activity [14]: Active
- Activity [15]: Active
- Activity [16]: Active
- Activity [17]: Active
- Activity [18]: Active
- Activity [19]: Active
- Activity [20]: Active
- Activity [21]: Active
- Activity [22]: Active
- Activity [23]: Active

Structure (SMILES): NS(=O)(=O)C#Cc1ccccc1
- Activity [1]: Active
- Activity [24]: Active
- Activity [25]: Active
- T1/2 [4]: 272 min
- Activity [26]: Active
- Activity [27]: Active
- Activity [28]: Active
- t1/2 [5]: 12.26 min
- Activity [7]: Active
- Activity [9]: Non-Toxic
- Activity [29]: Active
- Activity [11]: Active
- Activity [30]: Active
- Activity [14]: Active
- Activity [31]: Active
- Activity [16]: Active
- Activity [19]: Active
- Activity [32]: Active
- Activity [33]: Active
- Activity [34]: Active
- Activity [35]: Active
- Activity [21]: Active
- Activity [36]: 489 Da
- Activity [37]: Active
- Activity [23]: Active
